Measurements as given in patent US9533999B2, “Fused thiazin-3-ones as KCA3.1 inhibitors” (Boehringer Ingelheim International GmbH, priority 2012, dated 2017).

Assays:
human KCa3.1 = human KCa3.1 (Homo sapiens (Human), UniProt O15554); assay: KCa3.1 Assay (FLIPR thallium influx); type: cell-based; settings: HEK293 cells over-expressing human KCa3.1; Tl+ influx, FLIPR dye; 15 min compound treatment
Method: HEK293 cells over-expressing human KCa3.1 are used to measure the effects of compounds in inhibiting the KCa3.1 channel function. The assay is based on measuring the influx of Tl^+ through KCa3.1 using a FLIPR dye assay (FLIPR Potassium Ion Channel Assay Kit #R8154 by Molecular Devices). The day before the assay HEK293/KCa3.1 cells are seeded on a 384 well plate. On the day of the assay, media is removed and replaced with Molecular Devices Potassium Ion Channel dye then incubated for 1 hour according to manufacturer's recommendations. The cells are then treated with compounds or DMSO control for 15 min, followed by addition of thallium (final concentration=1.5 mM) and ionomycin (final concentration=1 uM). The plate is read on HAMAMATSU […] measuring fluorescence signal for 50 seconds using (Em: 565-625 nm). Data analysis: HAMAMATSU 6000 data are exported using max-min value for frame 10 and 40 and corrected by spatial uniformity correction. Percent of control (POC) is calculated as 100×(max-minFlsample−max-minFllow)/(max-minFlhi−max-minFllow). Max-min Flsample is max-min value of each sample well containing test compound. Max-min Fllow is average max-min value of wells containing reference inhibitory compound. Max-min Flhi is average max-min value of wells containing DMSO. IC50 values are determined by nonlinear curve fitting of the data from a duplicate 11-point concentration-response curve.

aortas of ApoE−/− mice = settings: cited from earlier work
C57BL/6 mice = settings: MOG35-55 peptide induced; cited from earlier work
mice = settings: UUO-induced, treated mice; cited from earlier work

| SMILES | IC50 (human KCa3.1) | also measured |
| --- | --- | --- |
| O=C1CS(=O)(=O)c2nccnc2N1Cc1cccc(C(F)(F)F)c1 [Compound I-24] | 2600 nM |  |
| O=C1CS(=O)(=O)c2cccnc2N1CCc1cccc(Cl)c1 [Compound I-16] | 2000 nM |  |
| O=C1CS(=O)(=O)c2cccnc2N1Cc1ccc(Cl)c(C(F)(F)F)c1 [Compound I-3] | 180 nM |  |
| CC(C)c1nc2c(s1)S(=O)(=O)CC(=O)N2Cc1cccc(C(F)(F)F)c1 [Compound I-35] | 240 nM |  |
| O=C1CS(=O)(=O)c2ncsc2N1Cc1ccc(F)c(OC(F)(F)F)c1 [Compound I-26] | 510 nM |  |
| Cc1nc2c(s1)N(Cc1ccc(F)c(OC(F)(F)F)c1)C(=O)CS2(=O)=O [Compound I-27] | 310 nM |  |
| O=C1CS(=O)(=O)c2scnc2N1Cc1ccc(F)c(OC(F)(F)F)c1 [Compound I-33] | 110 nM |  |
| O=C1CS(=O)(=O)c2sccc2N1Cc1ccc(F)c(OC(F)(F)F)c1 [Compound I-40] | 48 nM |  |
| COC(=O)c1cc2c(s1)S(=O)(=O)CC(=O)N2C(C)c1cccc(C(F)(F)F)c1 (stereo not shown) [Compound I-43] | 120 nM |  |
| Clc1ccccc1C(c1ccccc1)(c1ccccc1)n1ccnc1 [clotrimazole] |  | development of atherosclerosis (aortas of ApoE−/− mice): significantly reduces the development of atherosclerosis |
| CC(c1cccc(C(F)(F)F)c1)N1C(=O)CS(=O)(=O)c2ncc(Br)cc21 (stereo not shown) [Compound I-21] | 240 nM |  |
| O=C1CS(=O)(=O)c2cccnc2N1CCc1ccccc1C(F)(F)F [Compound I-6] | 5000 nM |  |
| CC(c1cccc(C(F)(F)F)c1)N1C(=O)CS(=O)(=O)c2ccc(C(=O)N(C)C)nc21 (stereo not shown) [Compound I-19] | 2200 nM |  |
| NC(=O)c1ccc2c(n1)N(Cc1ccc(Cl)c(C(F)(F)F)c1)C(=O)CS2(=O)=O [Compound I-20] | 490 nM |  |
| CC(c1cccc(C(F)(F)F)c1)N1C(=O)CS(=O)(=O)c2cc(Cl)cnc21 (stereo not shown) [Compound I-9] | 110 nM |  |
| O=C1CS(=O)(=O)c2cccnc2N1Cc1cccc(C(F)(F)F)c1 [Compound I-1] | 290 nM |  |
| O=C1CS(=O)(=O)c2cc(Cl)cnc2N1Cc1ccc(Cl)c(C(F)(F)F)c1 [Compound I-10] | 180 nM |  |
| O=C1CS(=O)(=O)c2ncsc2N1Cc1cccc(OC(F)(F)F)c1 [Compound I-31] | 2200 nM |  |
| CC(c1cccc(C(F)(F)F)c1)N1C(=O)CS(=O)(=O)c2ncsc21 (stereo not shown) [Compound I-32] | 1000 nM |  |
| Cc1nc2c(s1)S(=O)(=O)CC(=O)N2Cc1cccc(C(F)(F)F)c1 [Compound I-37] | 230 nM |  |
| CC(C)c1nc2c(s1)S(=O)(=O)CC(=O)N2Cc1cccc(OC(F)(F)F)c1 [Compound I-36] | 380 nM |  |

| SMILES | IC50 (human KCa3.1) | also measured |
| --- | --- | --- |
| O=C1CS(=O)(=O)c2cccnc2N1Cc1ccc(F)c(OC(F)(F)F)c1 [Compound I-5] | 49 nM |  |
| Clc1ccccc1C(c1ccccc1)(c1ccccc1)n1cccn1 [TRAM-34] |  | development of atherosclerosis (aortas of ApoE−/− mice): significantly reduces the development of atherosclerosis; inhibition in EAE model (C57BL/6 mice): inhibits; progression of renal fibrosis (mice): attenuated progression of renal fibrosis |
| O=C1CS(=O)(=O)c2nc(C3CC3)sc2N1Cc1cccc(C(F)(F)F)c1 [Compound I-30] | 4300 nM |  |
| C[C@@H](c1cccc(C(F)(F)F)c1)N1C(=O)CS(=O)(=O)c2nccnc21 [Compound I-22, 1,1-dioxo-4-[(S)-1-(3-trifluoromethyl-phenyl)-ethyl]-1,4-dihydro-2H-11ambda*6*-pyrazino[2,3-b][1,4]thiazin-3-one] | 1100 nM |  |
| CC(c1ccc(Cl)c(C(F)(F)F)c1)N1C(=O)CS(=O)(=O)c2cccnc21 (stereo not shown) [Compound I-4] | 140 nM |  |
| O=C1CS(=O)(=O)c2cccnc2N1CCc1cccc(C(F)(F)F)c1 [Compound I-7] | 350 nM |  |
| CC(c1cccc(C(F)(F)F)c1)N1C(=O)CS(=O)(=O)c2cccnc21 (stereo not shown) [Compound I-2] | 120 nM |  |
| CC(c1cc(C(F)(F)F)ccn1)N1C(=O)CS(=O)(=O)c2cccnc21 (stereo not shown) [Compound I-8] | 1900 nM |  |
| O=C1CS(=O)(=O)c2cc(Cl)cnc2N1Cc1ccc(F)c(OC(F)(F)F)c1 [Compound I-15] | 92 nM |  |
| O=C1CS(=O)(=O)c2ncsc2N1Cc1cccc(C(F)(F)F)c1 [Compound I-25, 4,4-dioxo-7-(3-trifluoromethyl-benzyl)-4,7-dihydro-5H-41ambda*6*-thiazolo[4,5-b][1,4]thiazin-6-one] | 3700 nM |  |
| O=C1CS(=O)(=O)c2cccnc2N1Cc1ccc(Cl)c(OC(F)(F)F)c1 [Compound I-12] | 77 nM |  |
| CC(C)c1nc2c(s1)S(=O)(=O)CC(=O)N2Cc1ccc(F)c(OC(F)(F)F)c1 [Compound I-34] | 96 nM |  |
| O=C1CS(=O)(=O)c2nccnc2N1Cc1ccc(F)c(OC(F)(F)F)c1 [Compound I-23] | 170 nM |  |
| COC(=O)c1cc2c(s1)S(=O)(=O)CC(=O)N2Cc1cccc(C(F)(F)F)c1 [Compound I-41] | 190 nM |  |
| O=C1CS(=O)(=O)c2ccsc2N1Cc1ccc(F)c(OC(F)(F)F)c1 [Compound I-39] | 39 nM |  |
| COC(=O)c1cc2c(s1)S(=O)(=O)CC(=O)N2Cc1cccc(OC(F)(F)F)c1 [Compound I-42] | 150 nM |  |
| COC(=O)c1ccc2c(n1)N(Cc1ccc(F)c(OC(F)(F)F)c1)C(=O)CS2(=O)=O [Compound I-18] | 88 nM |  |
| Cc1nc2c(s1)N(Cc1cccc(OC(F)(F)F)c1)C(=O)CS2(=O)=O [Compound I-29] | 2400 nM |  |
| Cc1nc2c(s1)N(Cc1cccc(C(F)(F)F)c1)C(=O)CS2(=O)=O [Compound I-28] | 4000 nM |  |
| CC(c1cccc(C(F)(F)F)c1)N1C(=O)CS(=O)(=O)c2ccsc21 (stereo not shown) [Compound I-38] | 71 nM |  |
| O=C1CS(=O)(=O)c2cccnc2N1Cc1ccc(Cl)c(S(=O)(=O)C(F)(F)F)c1 [Compound I-13] | 830 nM |  |

More lines, main results first:

| IC50 (human KCa3.1) | SMILES | also measured |
| --- | --- | --- |
| 52 nM | O=C1CSc2cccnc2N1Cc1ccc(Cl)c(SC(F)(F)F)c1 [II-7] |  |
| 52 nM | O=C1CSc2cccnc2N1Cc1cccc(OC(F)(F)F)c1 [II-1, 4-(3-trifluoromethoxy-benzyl)-4H-pyrido[3,2-b][1,4]thiazin-3-one] |  |
| 180 nM | NC(=O)c1ccc2c(n1)N(Cc1ccc(Cl)c(C(F)(F)F)c1)C(=O)CS2 [II-3] |  |
| 73 nM | Cc1nc2c(s1)SCC(=O)N2Cc1cccc(C(F)(F)F)c1 [II-22] |  |
| 41 nM | CC(c1cccc(C(F)(F)F)c1)N1C(=O)CSc2cccnc21 (stereo not shown) [II-4] |  |
| 67 nM | Cc1nc2c(s1)SCC(=O)N2C(C)c1cccc(C(F)(F)F)c1 (stereo not shown) [II-23] |  |
| 46 nM | O=C1CSc2cccnc2N1Cc1ccc(Cl)c(C(F)(F)F)c1 [II-5] |  |
| 130 nM | O=C1CSc2cc(Cl)cnc2N1Cc1ccc(F)c(OC(F)(F)F)c1 [II-9] |  |
| 66 nM | O=C1CSc2ccc(CO)nc2N1Cc1ccc(Cl)c(C(F)(F)F)c1 [II-11] |  |
| 250 nM | CC(C)c1nc2c(s1)SCC(=O)N2Cc1ccc(F)c(OC(F)(F)F)c1 [II-18] |  |
| 47 nM | O=C1CSc2cccnc2N1Cc1ccc(Cl)c(S(=O)(=O)C(F)(F)F)c1 [II-8] |  |
| 320 nM | O=C1CSc2ncsc2N1Cc1cccc(C(F)(F)F)c1 [II-2, 7-(3-trifluoromethyl-benzyl)-7H-thiazolo[4,5-b][1,4]thiazin-6-one] |  |
| 160 nM | O=C1CSc2ncsc2N1Cc1cccc(OC(F)(F)F)c1 [II-13] |  |
| 1600 nM | O=C1CSc2nc(C3CC3)sc2N1Cc1cccc(C(F)(F)F)c1 [II-14] |  |
| 340 nM | CC(C)c1nc2c(s1)SCC(=O)N2Cc1cccc(C(F)(F)F)c1 [II-19] |  |
| 310 nM | O=C1CSc2cccnc2N1Cc1cccc(Br)c1 [II-10] |  |
| 170 nM | CC(c1cccc(C(F)(F)F)c1)N1C(=O)CSc2ncsc21 (stereo not shown) [II-16] |  |
| 260 nM | Cc1nc2c(s1)N(Cc1cccc(OC(F)(F)F)c1)C(=O)CS2 [II-12] |  |
| 510 nM | CC(C)c1nc2c(s1)SCC(=O)N2Cc1cccc(OC(F)(F)F)c1 [II-20] |  |
| 490 nM | Cc1nc2c(s1)N(Cc1cccc(C(F)(F)F)c1)C(=O)CS2 [II-15] |  |
| 400 nM | CC(C)c1nc2c(s1)SCC(=O)N2C(C)c1cccc(C(F)(F)F)c1 (stereo not shown) [II-21] |  |
| 60 nM | O=C1CSc2ncsc2N1Cc1ccc(F)c(OC(F)(F)F)c1 [II-17] |  |
| 3600 nM | CC(c1cc(C(F)(F)F)nn1C)N1C(=O)CSc2cccnc21 (stereo not shown) [II-6] |  |
